In ChEMBL document CHEMBL5223073, “Andrographolide suppresses cisplatin-induced endothelial hyperpermeability through activation of PI3K/Akt and eNOS -derived nitric oxide” (Bioorg Med Chem, 2020) one finds Activity and inhibition data, which are given here for one compound.

Active and inactive are the calls of the source. The rule behind the calls is not given here.

Data set [1] concerns U-937. The experiment in a line: Cytotoxicity against human U-937 cells assessed as reduction in cell viability at <=30 uM measured after 24 hrs by MTT assay. The class given is toxicity, cell-based. Conditions: u-937, 24 h. On the technique in general: Formazan colour is commonly taken as a measure of viable cells.
For data set [2], the system named is HUVEC. The experiment in a line: Inhibition of cisplatin-induced ICAM-1 protein expression in HUVEC cells preincubated for 30 mins followed by cisplatin addition and measured after 24 hrs by Western blot analysis. The class given is functional, cell-based. Conditions: Homo sapiens, dose 10-30 µM, time 24.5 hrs. (A western blot detects proteins with antibodies after separation by electrophoresis.)

For data set [3], the system named is HUVEC. The experiment in a line: Induction of NO production in cisplatin-treated HUVEC cells assessed as increase in fluorescence signal at 30 uM preincubated with eNOS inhibitor, N(G)-nitro-L-arginine methyl ester for 3 hrs followed by compound addition and measured immediately by DAF-FM dye based analysis. The class given is functional, cell-based. Conditions: Homo sapiens.

The test system of data set [4] is HUVEC. The experiment in a line: Induction of NO production in cisplatin-treated HUVEC cells assessed as increase in fluorescence signal at 30 uM preincubated with PI3K inhibitor, wortmannin for 3 hrs followed by compound addition and measured immediately by DAF-FM dye based analysis. It is filed as functional, cell-based. Conditions: Homo sapiens.
Data set [5] concerns HUVEC. The experiment in a line: Effect on total eNOS protein level in cisplatin-treated HUVEC cells at 30 uM measured after 5 to 240 mins by Western blot analysis. The class given is functional, cell-based. The following applies: Homo sapiens, time 5-240 min.
The subject of data set [6] is HUVEC. As to the kind of experiment: Activation of PI3K in cisplatin-treated HUVEC cells assessed as increase PIP3 formation pretreated for 30 mins followed by cisplatin addition by immunoprecipitation analysis. The following applies: Homo sapiens, filed as activator, dose 10-30 µM. It is filed as cell-based.
In data set [7] the test system is HUVEC. As to the kind of experiment: Activation of AKT in cisplatin-treated HUVEC cells assessed as increase in AKT phosphorylation at 30 uM pretreated with PI3K inhibitor, wortmannin followed by compound addition and measured after 240 mins by Western blot analysis. It is filed as cell-based. Conditions: Homo sapiens.
The target in data set [8] is T1, Nitric oxide synthase 3 (Homo sapiens) (UniProt P29474).
T1 sequence (whole entry): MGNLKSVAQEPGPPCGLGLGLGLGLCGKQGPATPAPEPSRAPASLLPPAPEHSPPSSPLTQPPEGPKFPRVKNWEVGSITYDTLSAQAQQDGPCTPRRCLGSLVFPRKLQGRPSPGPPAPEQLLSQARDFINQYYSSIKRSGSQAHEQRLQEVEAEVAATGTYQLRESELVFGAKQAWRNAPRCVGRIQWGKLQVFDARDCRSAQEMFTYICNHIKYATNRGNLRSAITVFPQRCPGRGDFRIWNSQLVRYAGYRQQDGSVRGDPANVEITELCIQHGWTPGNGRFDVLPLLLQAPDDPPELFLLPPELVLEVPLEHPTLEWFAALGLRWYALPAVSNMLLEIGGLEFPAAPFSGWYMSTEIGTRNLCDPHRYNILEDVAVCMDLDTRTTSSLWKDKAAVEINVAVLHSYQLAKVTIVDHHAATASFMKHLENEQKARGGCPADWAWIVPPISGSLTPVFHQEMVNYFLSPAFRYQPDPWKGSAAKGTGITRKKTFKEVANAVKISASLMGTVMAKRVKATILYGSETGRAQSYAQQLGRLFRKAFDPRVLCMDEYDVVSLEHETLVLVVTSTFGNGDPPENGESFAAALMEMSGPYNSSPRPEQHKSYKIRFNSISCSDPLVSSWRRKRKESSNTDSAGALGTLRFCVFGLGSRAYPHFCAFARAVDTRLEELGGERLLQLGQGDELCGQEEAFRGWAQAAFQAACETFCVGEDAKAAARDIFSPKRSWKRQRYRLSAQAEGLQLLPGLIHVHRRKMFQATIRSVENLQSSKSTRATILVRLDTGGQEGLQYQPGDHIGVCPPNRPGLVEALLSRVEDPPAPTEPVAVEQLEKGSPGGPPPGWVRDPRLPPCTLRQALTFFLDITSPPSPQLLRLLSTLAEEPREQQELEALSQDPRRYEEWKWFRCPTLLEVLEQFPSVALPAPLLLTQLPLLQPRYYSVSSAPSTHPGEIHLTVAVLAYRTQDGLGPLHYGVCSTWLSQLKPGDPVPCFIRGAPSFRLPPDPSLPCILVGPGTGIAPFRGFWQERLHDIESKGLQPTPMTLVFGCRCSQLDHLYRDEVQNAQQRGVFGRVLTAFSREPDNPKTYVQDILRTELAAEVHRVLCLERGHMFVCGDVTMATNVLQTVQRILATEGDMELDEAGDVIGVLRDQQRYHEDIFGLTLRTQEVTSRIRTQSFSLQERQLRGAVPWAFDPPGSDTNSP
The experiment in a line: Activation of eNOS activity in cisplatin-treated HUVEC cells assessed as increase in intracellular cGMP level at 30 uM preincubated with eNOS inhibitor, N(G)-nitro-L-arginine methyl ester followed by compound addition and further incubated for 15 mins by radioimmunoassay. It is filed as cell-based.

In data set [9] the test system is HUVEC. The experiment in a line: Upregulation of cytosolic p65 level in cisplatin-treated HUVEC cells at 30 uM incubated for 1 hr by Western blot analysis. The class given is functional, cell-based. Conditions: Homo sapiens.
Data set [10] concerns HUVEC. The experiment in a line: Upregulation of cytosolic p65 level in cisplatin-treated HUVEC cells at 30 uM preincubated with eNOS inhibitor, N(G)-nitro-L-arginine methyl ester followed by compound addition and further incubated for 1 hr by Western blot analysis. The class given is functional, cell-based. Conditions: Homo sapiens.
Data set [11] deals with HUVEC. As to the kind of experiment: Downregulation of cisplatin-induced ICAM1 protein expression in HUVEC cells at 30 uM preincubated with PI3K inhibitor, wortmannin followed by compound addition and further incubated for 1 hr by Western blot analysis. The class given is functional, cell-based. The following applies: Homo sapiens.
The subject of data set [12] is HUVEC. The experiment in a line: Downregulation of cisplatin-induced PKCalpha translocation in HUVEC cells at 30 uM incubated for 15 mins in presence of cisplatin and PI3K inhibitor, wortmannin by Western blot analysis. Conditions: Homo sapiens. The class given is functional, cell-based.
The test system of data set [13] is HUVEC. The experiment in a line: Inhibition of cisplatin-induced TRPC1 phosphorylation in [32P] orthophosphate labeled HUVEC cells at 30 uM incubated for 15 mins in presence of cisplatin by Western blot analysis. Conditions: Homo sapiens. The class given is cell-based.
Data set [14] relates to HUVEC. As to the kind of experiment: Improvement in cisplatin-induced endothelial monolayer integrity in HUVEC cells assessed as increase in transendothelial electric resistance at 30 uM preincubated with compound followed by cisplatin stimulation and measured after 45 mins. The class given is functional, cell-based. The following applies: Homo sapiens.
For data set [15], the system named is HUVEC. As to the kind of experiment: Improvement in cisplatin-induced endothelial monolayer integrity in HUVEC cells assessed as reduction in transmembrane movement of albumin at 30 uM preincubated with compound in presence of PI3K inhibitor, wortmannin followed by cisplatin stimulation and measured after 2 hrs. The class given is functional, cell-based. The following applies: Homo sapiens.

Data set [16] concerns HUVEC. As to the kind of experiment: Improvement in cisplatin-induced endothelial monolayer integrity in HUVEC cells assessed as reduction in transmembrane movement of albumin at 30 uM preincubated with compound in presence of eNOS inhibitor, N(G)-nitro-L-arginine methyl ester followed by cisplatin stimulation and measured after 2 hrs. The class given is functional, cell-based. The following applies: Homo sapiens.

Data set [17] concerns U-937. The experiment in a line: Inhibition of cisplatin-induced ICAM1 dependent HUVEC cells adhesion to human U-937 cells at 10 to 30 uM preincubated with HUVEC cells for 4.5 hrs in presence of cisplatin followed by U-937 cell suspension addition and measured after 1 hr by BCECF fluorescent probe based assay. It is filed as functional. Conditions: dose 10-30 µM, time 5.5 hrs.

Data set [18] has as its system U-937. As to the kind of experiment: Inhibition of cisplatin-induced ICAM1 dependent HUVEC cells adhesion to human U-937 cells at 10 to 30 uM preincubated with HUVEC cells for 4.5 hrs in presence of cisplatin and eNOS inhibitor, N(G)-nitro-L-arginine methyl ester followed by U-937 cell suspension addition and measured after 1 hr by BCECF fluorescent probe based assay. It is filed as functional. The following applies: dose 10-30 µM, time 5.5 hrs.

Consider `C=C1CC[C@@H]2[C@](C)(CO)[C@H](O)CC[C@@]2(C)[C@@H]1C/C=C1/C(=O)OC[C@H]1O` [ANDROGRAPHOLIDE], for which the Activity result in data set [1] was “Non-Toxic”; in [6], “Dose-Dependent Effect”. For the same compound, the inhibition entry in data set [2] was “Dose-Dependent Effect”. Further, the result in data set [3], in data set [4], in [5], in data set [7], in [8] and in [10] was inactive. Also, the result in [11], in [12], in data set [15] and in [16] was inactive. The result in data set [9] and in data set [14] was Active. Moreover, the inhibition entry in [13] and in [17] was “Active” throughout. Further, in [18], the inhibition entry was “inactive”.
